Experimental findings from ChEMBL document CHEMBL3580636, “Discovery of a Potent Class of PI3Kα Inhibitors with Unique Binding Mode via Encoded Library Technology (ELT)” (ACS Med Chem Lett, 2015) are described below.

Experiment [1] deals with Phosphatidylinositol 4,5-bisphosphate 3-kinase catalytic subunit alpha isoform (Homo sapiens, UniProt P42336). Description: Inhibition of wild type his-tagged PI3Kalpha (unknown origin).
For experiment [2], the target named is Phosphatidylinositol 4,5-bisphosphate 3-kinase catalytic subunit alpha isoform (Homo sapiens, UniProt P42336, H1047R). Description: Inhibition of PI3Kalpha H1047R mutant (unknown origin).
For experiment [3], the target named is Phosphatidylinositol 4,5-bisphosphate 3-kinase catalytic subunit beta isoform (Homo sapiens, UniProt P42338). Description: Inhibition of PI3Kbeta (unknown origin).
The target of experiment [4] is T1, Phosphatidylinositol 4,5-bisphosphate 3-kinase catalytic subunit delta isoform (Homo sapiens, UniProt O00329).
T1 sequence (O00329 whole entry): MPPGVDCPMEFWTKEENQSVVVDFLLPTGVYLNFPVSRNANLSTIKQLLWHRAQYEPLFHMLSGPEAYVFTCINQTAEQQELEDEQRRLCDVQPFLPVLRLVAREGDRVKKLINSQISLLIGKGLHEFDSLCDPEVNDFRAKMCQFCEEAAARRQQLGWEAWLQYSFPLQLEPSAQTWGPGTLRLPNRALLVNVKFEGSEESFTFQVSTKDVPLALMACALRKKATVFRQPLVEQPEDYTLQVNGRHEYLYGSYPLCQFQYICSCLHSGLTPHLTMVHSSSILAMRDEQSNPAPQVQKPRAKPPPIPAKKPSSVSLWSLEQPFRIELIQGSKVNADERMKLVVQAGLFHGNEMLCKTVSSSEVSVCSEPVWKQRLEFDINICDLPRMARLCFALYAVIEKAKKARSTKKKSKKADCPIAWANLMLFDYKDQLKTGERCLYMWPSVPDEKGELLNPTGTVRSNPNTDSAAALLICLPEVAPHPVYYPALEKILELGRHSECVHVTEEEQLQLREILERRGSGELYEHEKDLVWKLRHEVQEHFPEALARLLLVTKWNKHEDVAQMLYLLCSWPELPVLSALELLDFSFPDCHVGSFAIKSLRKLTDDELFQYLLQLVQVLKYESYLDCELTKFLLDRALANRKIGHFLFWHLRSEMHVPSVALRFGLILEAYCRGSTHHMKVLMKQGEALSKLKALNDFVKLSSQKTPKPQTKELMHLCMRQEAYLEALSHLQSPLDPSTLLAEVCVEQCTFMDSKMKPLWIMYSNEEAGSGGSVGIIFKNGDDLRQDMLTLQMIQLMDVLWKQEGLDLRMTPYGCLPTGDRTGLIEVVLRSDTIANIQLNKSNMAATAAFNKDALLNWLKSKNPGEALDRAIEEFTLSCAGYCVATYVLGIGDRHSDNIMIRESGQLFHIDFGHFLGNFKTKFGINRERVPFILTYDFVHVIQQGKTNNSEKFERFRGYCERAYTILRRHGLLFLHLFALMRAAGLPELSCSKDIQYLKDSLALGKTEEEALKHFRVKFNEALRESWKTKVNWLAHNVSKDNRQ
Description: Inhibition of PI3Kdelta (unknown origin).

The target of experiment [5] is Phosphatidylinositol 4,5-bisphosphate 3-kinase catalytic subunit gamma isoform (Homo sapiens, UniProt P48736). Description: Inhibition of PI3Kgamma (unknown origin).
Experiment [6] is filed under the species Homo sapiens. Description: Selectivity ratio of IC50 for PI3Kbeta (unknown origin) to IC50 for wild type his-tagged PI3Kalpha (unknown origin).
The species named for experiment [7] is Homo sapiens. Description: Selectivity ratio of IC50 for PI3Kdelta (unknown origin) to IC50 for wild type his-tagged PI3Kalpha (unknown origin).

Sequence of Phosphatidylinositol 4,5-bisphosphate 3-kinase catalytic subunit gamma isoform (P48736 whole entry, canonical isoform): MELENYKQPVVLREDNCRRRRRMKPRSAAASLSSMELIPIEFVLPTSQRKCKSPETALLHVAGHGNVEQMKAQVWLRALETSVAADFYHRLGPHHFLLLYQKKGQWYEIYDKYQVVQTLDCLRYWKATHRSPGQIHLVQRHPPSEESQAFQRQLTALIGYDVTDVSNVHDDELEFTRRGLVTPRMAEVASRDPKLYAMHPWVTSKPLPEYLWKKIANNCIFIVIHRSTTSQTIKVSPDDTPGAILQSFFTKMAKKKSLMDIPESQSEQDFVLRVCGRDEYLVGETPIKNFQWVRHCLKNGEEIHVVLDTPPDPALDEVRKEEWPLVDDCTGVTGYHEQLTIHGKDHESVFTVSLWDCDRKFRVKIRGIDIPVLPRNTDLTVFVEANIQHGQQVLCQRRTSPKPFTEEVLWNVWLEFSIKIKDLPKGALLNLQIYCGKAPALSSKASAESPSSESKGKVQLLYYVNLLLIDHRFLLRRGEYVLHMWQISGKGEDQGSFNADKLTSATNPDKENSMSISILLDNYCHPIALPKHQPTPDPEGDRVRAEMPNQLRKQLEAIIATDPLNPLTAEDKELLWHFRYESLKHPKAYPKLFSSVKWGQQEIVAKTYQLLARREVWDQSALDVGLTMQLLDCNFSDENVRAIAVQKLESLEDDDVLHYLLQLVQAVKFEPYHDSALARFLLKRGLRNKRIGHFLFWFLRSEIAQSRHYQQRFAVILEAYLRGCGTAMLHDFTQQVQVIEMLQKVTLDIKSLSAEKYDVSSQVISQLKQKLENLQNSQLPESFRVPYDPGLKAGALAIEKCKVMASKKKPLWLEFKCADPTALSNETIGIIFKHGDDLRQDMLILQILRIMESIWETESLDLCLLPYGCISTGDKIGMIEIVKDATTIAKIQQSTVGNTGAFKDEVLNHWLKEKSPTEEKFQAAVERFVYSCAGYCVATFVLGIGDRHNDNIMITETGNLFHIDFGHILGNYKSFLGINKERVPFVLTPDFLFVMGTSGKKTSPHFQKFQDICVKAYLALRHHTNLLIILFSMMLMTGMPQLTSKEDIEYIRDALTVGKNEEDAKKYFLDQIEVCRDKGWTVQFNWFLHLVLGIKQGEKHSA
Sequence of Phosphatidylinositol 4,5-bisphosphate 3-kinase catalytic subunit beta isoform (P42338 whole entry, canonical isoform): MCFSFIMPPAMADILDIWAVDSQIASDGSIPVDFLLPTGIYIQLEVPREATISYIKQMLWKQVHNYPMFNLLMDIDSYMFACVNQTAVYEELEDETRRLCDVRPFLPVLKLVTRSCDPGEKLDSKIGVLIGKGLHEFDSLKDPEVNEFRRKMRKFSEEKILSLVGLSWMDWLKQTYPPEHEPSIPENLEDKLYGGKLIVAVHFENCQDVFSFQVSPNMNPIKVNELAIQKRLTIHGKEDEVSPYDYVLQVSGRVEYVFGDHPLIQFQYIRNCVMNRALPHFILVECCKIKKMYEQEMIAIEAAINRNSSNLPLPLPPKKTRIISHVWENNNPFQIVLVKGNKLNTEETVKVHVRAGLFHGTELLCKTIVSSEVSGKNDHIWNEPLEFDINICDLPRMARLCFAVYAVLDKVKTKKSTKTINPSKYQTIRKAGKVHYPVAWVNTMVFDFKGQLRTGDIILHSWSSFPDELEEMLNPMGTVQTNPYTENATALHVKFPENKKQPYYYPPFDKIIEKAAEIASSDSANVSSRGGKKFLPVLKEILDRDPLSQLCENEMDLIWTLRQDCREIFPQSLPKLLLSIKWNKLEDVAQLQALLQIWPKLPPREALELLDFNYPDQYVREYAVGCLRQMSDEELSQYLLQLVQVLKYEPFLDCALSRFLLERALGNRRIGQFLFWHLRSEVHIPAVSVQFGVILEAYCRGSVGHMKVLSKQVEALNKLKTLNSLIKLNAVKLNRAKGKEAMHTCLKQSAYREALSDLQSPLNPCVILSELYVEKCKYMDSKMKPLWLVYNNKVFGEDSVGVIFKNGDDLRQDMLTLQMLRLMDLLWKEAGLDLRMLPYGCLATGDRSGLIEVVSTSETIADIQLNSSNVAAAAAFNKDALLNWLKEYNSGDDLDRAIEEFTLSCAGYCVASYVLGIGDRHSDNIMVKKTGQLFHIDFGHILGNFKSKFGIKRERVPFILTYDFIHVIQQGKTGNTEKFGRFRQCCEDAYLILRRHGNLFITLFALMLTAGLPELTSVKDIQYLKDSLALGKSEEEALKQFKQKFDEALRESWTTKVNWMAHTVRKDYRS
Sequence of Phosphatidylinositol 4,5-bisphosphate 3-kinase catalytic subunit alpha isoform (Homo sapiens, UniProt P42336, H1047R) (P42336 whole entry H1047R, canonical isoform): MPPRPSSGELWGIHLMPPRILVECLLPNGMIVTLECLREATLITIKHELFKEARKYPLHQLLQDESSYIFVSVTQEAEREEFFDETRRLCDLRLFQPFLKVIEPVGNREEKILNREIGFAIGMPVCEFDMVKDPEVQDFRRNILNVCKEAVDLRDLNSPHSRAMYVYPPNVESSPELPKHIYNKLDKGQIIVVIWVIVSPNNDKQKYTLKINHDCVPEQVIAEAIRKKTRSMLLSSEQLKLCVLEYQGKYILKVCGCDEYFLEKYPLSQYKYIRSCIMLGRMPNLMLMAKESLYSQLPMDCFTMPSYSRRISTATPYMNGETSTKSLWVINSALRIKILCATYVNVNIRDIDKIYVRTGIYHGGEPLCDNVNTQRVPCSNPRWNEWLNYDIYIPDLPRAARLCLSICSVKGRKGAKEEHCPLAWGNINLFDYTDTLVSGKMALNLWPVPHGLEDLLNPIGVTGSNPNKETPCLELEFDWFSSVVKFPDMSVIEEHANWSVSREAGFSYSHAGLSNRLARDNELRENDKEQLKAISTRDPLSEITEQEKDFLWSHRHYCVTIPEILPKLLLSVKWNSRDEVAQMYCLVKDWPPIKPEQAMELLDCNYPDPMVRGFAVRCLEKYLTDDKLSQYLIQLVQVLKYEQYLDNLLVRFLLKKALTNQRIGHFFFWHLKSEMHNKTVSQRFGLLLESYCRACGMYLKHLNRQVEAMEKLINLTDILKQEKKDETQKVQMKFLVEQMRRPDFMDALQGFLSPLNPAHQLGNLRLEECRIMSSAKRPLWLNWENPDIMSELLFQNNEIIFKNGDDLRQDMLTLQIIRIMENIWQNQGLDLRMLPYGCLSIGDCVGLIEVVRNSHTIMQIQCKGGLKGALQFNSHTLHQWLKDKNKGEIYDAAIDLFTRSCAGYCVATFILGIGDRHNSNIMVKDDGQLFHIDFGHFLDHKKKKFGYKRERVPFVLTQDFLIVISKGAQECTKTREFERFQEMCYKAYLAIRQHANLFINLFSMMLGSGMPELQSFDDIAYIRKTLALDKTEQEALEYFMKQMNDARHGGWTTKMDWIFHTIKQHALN
Sequence of Phosphatidylinositol 4,5-bisphosphate 3-kinase catalytic subunit alpha isoform (Homo sapiens, UniProt P42336) (P42336 whole entry, canonical isoform): as the sequence (P42336 whole entry H1047R, canonical isoform) above, with R1047H counted along it

As for `COc1ccc(-c2cc(CNc3ccc(S(=O)(=O)Nc4nnc(C)s4)cc3)cc(C(=O)O)c2)cn1`, the concentration for half-maximal inhibition (IC50) (in general, the point on the concentration scale where inhibition reaches its midpoint) in experiment [1] amounted to 0.01 µM; in experiment [2], 0.0085 µM; in experiment [3], 0.149 µM; in experiment [4] it was 0.059 µM; in experiment [5] it was 0.0026 µM. For the same molecule, the Ratio IC50 in the experiment filed under Homo sapiens [6] and in the experiment listed under Homo sapiens [7] was 5 throughout.

Regarding `COC(=O)c1cc(I)cc(CNc2ccc(S(=O)(=O)Nc3nnc(C)s3)cc2)c1`, the IC50 in experiment [1] is > 25 µM; in experiment [2], 13 µM.

For `COc1ccc(-c2cc(CNc3ccc(S(=O)(=O)Nc4nnc(C)s4)cc3)cc(C(=O)NCCC(C)C)c2)cn1`, the concentration for half-maximal inhibition (IC50) in experiment [1] worked out at 0.0096 µM; in experiment [2] it was 0.011 µM; in experiment [3], 0.398 µM; in experiment [4], 0.004 µM; in experiment [5] it was 0.01 µM.

For `Cc1nnc(NS(=O)(=O)c2ccc(NCc3cc(C(=O)O)cc(-c4ccc5c(c4)OCO5)c3)cc2)s1`, the IC50 stood at 0.0398 µM in experiment [1], 0.501 µM in experiment [3], 0.199 µM in experiment [4] and 0.004 µM in experiment [5]. The Ratio IC50 in the experiment listed under Homo sapiens [6] and in the experiment filed under Homo sapiens [7] was 5 each time.

For the molecule `COC(=O)c1cc(CNc2ccc(S(=O)(=O)Nc3nnc(C)s3)cc2)cc(-c2ccc(OC)nc2)c1`, the IC50 in experiment [1] turned out to be 0.046 µM; in experiment [2], 0.03 µM.

Regarding `COc1ccc(-c2cc(CNc3ccc(S(=O)(=O)Nc4nnc(C)s4)cc3)cc(C(=O)NCCc3ccccc3F)c2)cn1`, the IC50 was 0.0065 µM in experiment [1]; 0.013 µM in experiment [2]; 0.7 µM in experiment [3]; 0.01 µM in experiment [4]; 0.0044 µM in experiment [5].

As to `COc1ccc(-c2cc(CNc3ccc(S(=O)(=O)N(C)c4nnc(C)s4)cc3)cc(C(=O)NCCc3ccccc3F)c2)cn1`, the 50% inhibitory concentration (IC50) is 2 µM in experiment [1]; > 10 µM in experiment [2]; > 10 µM in experiment [3]; 2 µM in experiment [4]; > 10 µM in experiment [5].

Regarding `COc1ccc(-c2cc(CNc3ccc(S(=O)(=O)Nc4nnc(C)s4)cc3)cc(C(=O)NC(CO)CO)c2)cn1`, the half-inhibitory concentration (IC50) in experiment [1] was 0.016 µM; in experiment [2], 0.016 µM; in experiment [3] it was 0.79 µM; in experiment [4] it was 0.02 µM; in experiment [5] it was 0.025 µM.

In the case of `COc1ccc(-c2cccc(CNc3ccc(S(=O)(=O)Nc4nnc(C)s4)cc3)c2)cn1`, the IC50 in experiment [1] turned out to be 0.102 µM; in experiment [3], 0.765 µM; in experiment [4], 0.044 µM; in experiment [5], 0.052 µM.

Regarding `Cc1nnc(NS(=O)(=O)c2ccc(NCc3cc(C(=O)O)cc(-c4ccc5c(c4)OCCO5)c3)cc2)s1`, the IC50 in experiment [1] came to 0.0126 µM; in experiment [3] it was 0.126 µM; in experiment [4] it was 0.0631 µM; in experiment [5] it was 0.002 µM. Further, the Ratio IC50 in the experiment listed under Homo sapiens [6] and in the experiment filed under Homo sapiens [7] was 5 each time.
